# Measured values from US9096518B2, “Substituted hydroxamic acids and uses thereof” (Millennium Pharmaceuticals, Inc., priority 2009, dated 2015).
# pIC50: −log10 of the molar value.
# Target: T1, purified human HDAC6 (Homo sapiens, UniProt Q9UBN7)
# T1 construct: purchased BPS Bioscience 5006
# T1 sequence (Q9UBN7 1-1215): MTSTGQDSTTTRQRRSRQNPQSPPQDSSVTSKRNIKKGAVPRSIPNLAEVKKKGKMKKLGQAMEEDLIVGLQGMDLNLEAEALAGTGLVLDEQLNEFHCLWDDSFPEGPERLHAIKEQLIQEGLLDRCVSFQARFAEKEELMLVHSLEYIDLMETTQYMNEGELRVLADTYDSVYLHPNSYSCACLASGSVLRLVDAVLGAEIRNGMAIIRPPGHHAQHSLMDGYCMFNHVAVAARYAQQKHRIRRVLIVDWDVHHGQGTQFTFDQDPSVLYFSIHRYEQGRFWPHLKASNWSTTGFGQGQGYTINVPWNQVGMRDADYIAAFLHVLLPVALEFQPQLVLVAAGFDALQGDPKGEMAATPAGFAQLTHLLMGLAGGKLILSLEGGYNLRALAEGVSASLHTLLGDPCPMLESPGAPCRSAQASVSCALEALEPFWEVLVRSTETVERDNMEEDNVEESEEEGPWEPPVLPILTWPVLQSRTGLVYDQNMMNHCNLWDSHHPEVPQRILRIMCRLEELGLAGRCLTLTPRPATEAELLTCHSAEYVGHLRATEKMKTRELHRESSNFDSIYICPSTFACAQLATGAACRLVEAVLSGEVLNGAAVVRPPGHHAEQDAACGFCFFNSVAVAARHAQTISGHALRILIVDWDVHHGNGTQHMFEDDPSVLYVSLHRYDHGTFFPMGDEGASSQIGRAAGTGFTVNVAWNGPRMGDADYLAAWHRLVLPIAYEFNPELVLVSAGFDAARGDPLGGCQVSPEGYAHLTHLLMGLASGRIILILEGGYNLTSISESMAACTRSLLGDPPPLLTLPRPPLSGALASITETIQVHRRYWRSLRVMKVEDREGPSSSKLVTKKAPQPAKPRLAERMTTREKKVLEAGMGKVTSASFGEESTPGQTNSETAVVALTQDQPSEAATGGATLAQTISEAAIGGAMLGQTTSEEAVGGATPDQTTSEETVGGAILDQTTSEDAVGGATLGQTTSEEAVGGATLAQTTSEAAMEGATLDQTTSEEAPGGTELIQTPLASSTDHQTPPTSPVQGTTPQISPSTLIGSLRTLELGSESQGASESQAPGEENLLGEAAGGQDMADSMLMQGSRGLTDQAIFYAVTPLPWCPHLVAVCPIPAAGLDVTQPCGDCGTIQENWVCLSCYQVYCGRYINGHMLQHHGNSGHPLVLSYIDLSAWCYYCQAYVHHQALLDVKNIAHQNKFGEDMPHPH
# Experiment: HDAC6 Enzyme Assay
# Format: biochemical
# Outline: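 Purified human HDAC6 incubated 1 h at 30 °C with Ac-Arg-Gly-Lys(Ac)-AMC peptide and compound; reaction stopped with trichostatin A, then trypsin releases AMC, read by fluorescence (Ex 340/Em 460 nm). IC50 from concentration-response curves relative to DMSO controls.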
row,SMILES,pIC50
1,"CC(C)(C)C(=O)N1CCCc2cc(C(=O)NO)ccc2C1 [Compound 82, 2-(2,2-dimethylpropanoyl)-N-hydroxy-2,3,4,5-tetrahydro-1H-2-benzazepine-7-carboxamide]",6.30 to 7.00
2,"O=C(NO)c1ccc2c(c1)CCCN(C(=O)c1ccc(C(F)(F)F)cc1)C2 [Compound 84, N-hydroxy-2-[4-(trifluoromethyl)benzoyl]-2,3,4,5-tetrahydro-1H-2-benzazepine-7-carboxamide]",< 6.30
3,"Cn1cccc1C(=O)N1CCc2ccc(C(=O)NO)cc2CC1 [Compound 86, N-hydroxy-3-[(1-methyl-1H-pyrrol-2-yl)carbonyl]-2,3,4,5-tetrahydro-1H-3-benzazepine-7-carboxamide]",6.30 to 7.00
4,"O=C(NO)c1ccc2c(c1)CCN(C(=O)Nc1ccc3c(c1)OCO3)C2 [Compound 90, N^2-1,3-benzodioxol-5-yl-N^6-hydroxy-3,4-dihydroisoquinoline-2,6(1H)-dicarboxamide]",> 7.30
5,"O=C(NO)c1ccc2c(c1)CCN(C(=O)NCCc1ccccc1)C2 [Compound 91, N^6-hydroxy-N^2-(2-phenylethyl)-3,4-dihydroisoquinoline-2,6(1H)-dicarboxamide]",> 7.30
6,"O=C(NO)c1ccc2c(c1)CCN(C(=O)Nc1ccc(OC(F)(F)F)cc1)C2 [Compound 92, N^6-hydroxy-N^2-[4-(trifluoromethoxy)phenyl]-3,4-dihydroisoquinoline-2,6(1H)-dicarboxamide]",> 7.30
7,"CCC(C)NC(=O)N1CCc2cc(C(=O)NO)ccc2C1 (stereo not drawn) [Compound 93, N^2-(sec-butyl)-N^6-hydroxy-3,4-dihydroisoquinoline-2,6(1H)-dicarboxamide]",> 7.30
8,"CCc1cccc(C)c1NC(=O)N1CCc2cc(C(=O)NO)ccc2C1 [Compound 94, N^2-(2-ethyl-6-methylphenyl)-N^6-hydroxy-3,4-dihydroisoquinoline-2,6(1H)-dicarboxamide]",> 7.30
9,"O=C(NO)c1ccc2c(c1)CCN(C(=O)Nc1ccc(-c3ccccc3)s1)C2 [Compound 95, N^6-hydroxy-N^2-(5-phenyl-2-thienyl)-3,4-dihydroisoquinoline-2,6(1H)-dicarboxamide]",> 7.30
10,"CC(C)(C)c1ccccc1NC(=O)N1CCc2cc(C(=O)NO)ccc2C1 [Compound 96, N^2-(2-tert-butylphenyl)-N^6-hydroxy-3,4-dihydroisoquinoline-2,6(1H)-dicarboxamide]",> 7.30
11,"CCCNC(=O)N1CCc2cc(C(=O)NO)ccc2C1 [Compound 97, N^6-hydroxy-N^2-propyl-3,4-dihydroisoquinoline-2,6(1H)-dicarboxamide]",7.00 to 7.30
12,"O=C(NO)c1ccc2c(c1)CCN(C(=O)Nc1ccccc1-c1ccccc1)C2 [Compound 102, N^2-biphenyl-2-yl-N^6-hydroxy-3,4-dihydroisoquinoline-2,6(1H)-dicarboxamide]",> 7.30
13,"CC(NC(=O)N1CCc2cc(C(=O)NO)ccc2C1)c1cccc2ccccc12 (stereo not drawn) [Compound 103, N^6-hydroxy-N^2-[1-(1-naphthyl)ethyl]-3,4-dihydroisoquinoline-2,6(1H)-dicarboxamide]",> 7.30
14,"Cc1ccc(CNC(=O)N2CCc3cc(C(=O)NO)ccc3C2)cc1 [Compound 105, N^6-hydroxy-N^2-(4-methylbenzyl)-3,4-dihydroisoquinoline-2,6(1H)-dicarboxamide]",> 7.30
15,"O=C(NO)c1ccc2c(c1)CCN(C(=O)CC1CC1)C2 [Compound 106, 2-(cyclopropylacetyl)-N-hydroxy-1,2,3,4-tetrahydroisoquinoline-6-carboxamide]",6.30 to 7.00
16,"O=C(NO)c1ccc2c(c1)CCN(Cc1cccc(OC(F)(F)F)c1)C2 [Compound 109, N-hydroxy-2-[3-(trifluoromethoxy)benzyl]-1,2,3,4-tetrahydroisoquinoline-6-carboxamide]",6.30 to 7.00
17,"CC(c1ccccc1)N1CCc2cc(C(=O)NO)ccc2C1 (stereo not drawn) [Compound 110, N-hydroxy-2-(1-phenylethyl)-1,2,3,4-tetrahydroisoquinoline-6-carboxamide]",6.30 to 7.00
18,"O=C(NO)c1ccc2c(c1)CCN(S(=O)(=O)c1csc(-c3ccon3)c1)C2 [Compound 112, N-hydroxy-2-[(5-isoxazol-3-yl-3-thienyl)sulfonyl]-1,2,3,4-tetrahydroisoquinoline-6-carboxamide]",6.30 to 7.00

# Second part, the compound after the results:
row,pIC50,SMILES
1,6.30 to 7.00,"Cn1cccc1C(=O)N1CCCc2cc(C(=O)NO)ccc2C1 [Compound 83, N-hydroxy-2-[(1-methyl-1H-pyrrol-2-yl)carbonyl]-2,3,4,5-tetrahydro-1H-2-benzazepine-7-carboxamide]"
2,6.30 to 7.00,"CC(C)(C)C(=O)N1CCc2ccc(C(=O)NO)cc2CC1 [Compound 85, 3-(2,2-dimethylpropanoyl)-N-hydroxy-2,3,4,5-tetrahydro-1H-3-benzazepine-7-carboxamide]"
3,6.30 to 7.00,"O=C(NO)c1ccc2c(c1)CCN(C(=O)c1ccc(C(F)(F)F)cc1)CC2 [Compound 87, N-hydroxy-3-[4-(trifluoromethyl)benzoyl]-2,3,4,5-tetrahydro-1H-3-benzazepine-7-carboxamide]"
4,> 7.30,"CC(C)(C(=O)N1CCc2ccc(C(=O)NO)cc2CC1)c1ccc(Cl)cc1 [Compound 88, 3-[2-(4-chlorophenyl)-2-methylpropanoyl]-N-hydroxy-2,3,4,5-tetrahydro-1H-3-benzazepine-7-carboxamide]"
5,> 7.30,"O=C(NO)c1ccc2c(c1)CCN(C(=O)Nc1ccc3c(c1)CCO3)C2 [Compound 89, N^2-(2,3-dihydro-1-benzofuran-5-yl)-N^6-hydroxy-3,4-dihydroisoquinoline-2,6(1H)-dicarboxamide]"
6,> 7.30,"O=C(NO)c1ccc2c(c1)CCN(C(=O)Nc1cccc(C(F)(F)F)c1)C2 [Compound 98, N^6-hydroxy-N^2-[3-(trifluoromethyl)phenyl]-3,4-dihydroisoquinoline-2,6(1H)-dicarboxamide]"
7,> 7.30,"O=C(NO)c1ccc2c(c1)CCN(C(=O)Nc1ccc(Cc3ccccc3)cc1)C2 [Compound 99, N^2-(4-benzylphenyl)-N^6-hydroxy-3,4-dihydroisoquinoline-2,6(1H)-dicarboxamide]"
8,> 7.30,"O=C(NO)c1ccc2c(c1)CCN(C(=O)Nc1cccc3ccccc13)C2 [Compound 100, N^6-hydroxy-N^2-1-naphthyl-3,4-dihydroisoquinoline-2,6(1H)-dicarboxamide]"
9,> 7.30,"O=C(NO)c1ccc2c(c1)CCN(C(=O)NC1CCCCC1)C2 [Compound 101, N^2-cyclohexyl-N^6-hydroxy-3,4-dihydroisoquinoline-2,6(1H)-dicarboxamide]"
10,> 7.30,"CC(C)c1ccc(NC(=O)N2CCc3cc(C(=O)NO)ccc3C2)cc1 [Compound 104, N^6-hydroxy-N^2-(4-isopropylphenyl)-3,4-dihydroisoquinoline-2,6(1H)-dicarboxamide]"
11,6.30 to 7.00,"O=C(NO)c1ccc2c(c1)CCN(CCOc1ccc(Cl)cc1)C2 [Compound 111, 2-[2-(4-chlorophenoxy)ethyl]-N-hydroxy-1,2,3,4-tetrahydroisoquinoline-6-carboxamide]"
12,7.00 to 7.30,"Cc1cccc(C)c1NC(=O)CN1CCc2cc(C(=O)NO)ccc2C1 [Compound 116, 2-{2-[(2,6-dimethylphenyl)amino]-2-oxoethyl}-N-hydroxy-1,2,3,4-tetrahydroisoquinoline-6-carboxamide]"
